#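 Step 1: Grow cells in 96-well plates. Step 2: Expose to compound for 48 hours at 5 concentrations. Step 3: Interpolate endpoints linearly; if unreached, use highest concentration. At the GI50, growth is halved.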 Calls of active or inactive are those of the source. Cut-off read from the data, not from the text of the source: active = GI50 up to about 1.1 µM and inactive = higher.
# Columns and labels:
# Test in all cases: inhibition of tumour cell growth, NCI panel, 48 h
# [1] = tested on: RPMI-8226
# [2] = tested on: COLO 205
# [3] = tested on: MDA-N
# [4] = tested on: HOP-62
# [5] = tested on: SN12C
# [6] = tested on: SF-295
# [7] = tested on: SK-MEL-28
# [8] = tested on: MCF7
# [9] = tested on: SK-MEL-2
# [10] = tested on: UACC-257
# [11] = tested on: TK-10
# [12] = tested on: UACC-62
# [13] = tested on: HT-29
# [14] = tested on: NCI-H23
# [15] = tested on: OVCAR-5
# [16] = tested on: MDA-MB-435
# [17] = tested on: ACHN
# [18] = tested on: Malme-3M
# [19] = tested on: A549
# [20] = tested on: BT-549
# [21] = tested on: SNB-75
# [22] = tested on: UO-31
# [23] = tested on: MDA-MB-231
# [24] = tested on: PC-3
# [25] = tested on: SF-268
# [26] = tested on: NCI-H460
# [27] = tested on: U-251
# [28] = tested on: SK-MEL-5
# [29] = tested on: HCC 2998
# [30] = tested on: T47D
# [31] = tested on: SW-620
# [32] = tested on: NCI/ADR-RES
# [33] = tested on: Hs-578T
# [34] = tested on: HCT-116
# [35] = tested on: CAKI-1
# [36] = tested on: SNB-19
# [37] = tested on: EKVX
# [38] = tested on: DU-145
# [39] = tested on: NCI-H226
# [40] = tested on: SK-OV-3
# [41] = tested on: IGROV-1
# [42] = tested on: LOX IMVI
# [43] = tested on: MOLT-4
# [44] = tested on: M14
# [45] = tested on: KM12
# [46] = tested on: HOP-92
# [47] = tested on: OVCAR-3
# [48] = tested on: CCRF-CEM
# [49] = tested on: SR
# [50] = tested on: OVCAR-8
# [51] = tested on: OVCAR-4
# [52] = tested on: K562
# [53] = tested on: SF-539
# [54] = tested on: RXF 393
# [55] = tested on: NCI-H522
# [56] = tested on: A498
# [57] = tested on: 786-0
# [58] = tested on: HCT-15
smiles,measurement,setting,value
Brc1ccc2c(c1)[C@H]1CCc3c([nH]c4ccccc34)[C@H]1N2,GI50,[1],4.39 µM (inactive)
same,GI50,[2],11.5 µM (inactive)
same,GI50,[3],14.9 µM (inactive)
same,GI50,[4],10.9 µM (inactive)
same,GI50,[5],13 µM (inactive)
same,GI50,[6],11.6 µM (inactive)
same,GI50,[7],14 µM (inactive)
same,GI50,[8],3.42 µM (inactive)
same,GI50,[9],16.6 µM (inactive)
same,GI50,[10],12.8 µM (inactive)
same,GI50,[11],11.2 µM (inactive)
same,GI50,[12],11.5 µM (inactive)
same,GI50,[13],14.1 µM (inactive)
same,GI50,[14],12.4 µM (inactive)
same,GI50,[15],11.7 µM (inactive)
same,GI50,[16],13.4 µM (inactive)
same,GI50,[17],12.5 µM (inactive)
same,GI50,[18],10.7 µM (inactive)
same,GI50,[19],14.8 µM (inactive)
same,GI50,[20],18.4 µM (inactive)
same,GI50,[21],21.3 µM (inactive)
same,GI50,[22],11.4 µM (inactive)
same,GI50,[23],1.6 µM (inactive)
same,GI50,[24],5.9 µM (inactive)
same,GI50,[25],15.1 µM (inactive)
same,GI50,[26],12.4 µM (inactive)
same,GI50,[27],10.1 µM (inactive)
same,GI50,[28],3.13 µM (inactive)
same,GI50,[29],12.9 µM (inactive)
same,GI50,[30],3.11 µM (inactive)
same,GI50,[31],14.4 µM (inactive)
same,GI50,[32],14.2 µM (inactive)
same,GI50,[33],25.4 µM (inactive)
same,GI50,[34],8.49 µM (inactive)
same,GI50,[35],10.2 µM (inactive)
same,GI50,[36],13.7 µM (inactive)
same,GI50,[37],10.8 µM (inactive)
same,GI50,[38],12.9 µM (inactive)
same,GI50,[39],12.1 µM (inactive)
same,GI50,[40],14.3 µM (inactive)
same,GI50,[41],0.369 µM (active)
same,GI50,[42],4.38 µM (inactive)
same,GI50,[43],2.2 µM (inactive)
same,GI50,[44],13.2 µM (inactive)
same,GI50,[45],5.31 µM (inactive)
same,GI50,[46],13.3 µM (inactive)
same,GI50,[47],10.6 µM (inactive)
same,GI50,[48],3.91 µM (inactive)
same,GI50,[49],0.889 µM (active)
same,GI50,[50],13.3 µM (inactive)
same,GI50,[51],13 µM (inactive)
same,GI50,[52],4.85 µM (inactive)
same,GI50,[53],2.36 µM (inactive)
same,GI50,[54],12 µM (inactive)
C=C1C(=O)OC2/C=C(\CO)C3OC3C3OC3(C)CC(OC(=O)/C(=C/C)CO)C12 (configuration not stated),GI50,[1],17 µM (inactive)
same,GI50,[2],34.4 µM (inactive)
same,GI50,[3],36.6 µM (inactive)
same,GI50,[4],> 100 µM (inactive)
same,GI50,[5],> 100 µM (inactive)
same,GI50,[6],> 100 µM (inactive)
same,GI50,[7],42.1 µM (inactive)
same,GI50,[8],34.8 µM (inactive)
same,GI50,[55],15.8 µM (inactive)
same,GI50,[9],> 100 µM (inactive)
same,GI50,[10],> 100 µM (inactive)
same,GI50,[11],> 100 µM (inactive)
same,GI50,[12],57.3 µM (inactive)
same,GI50,[56],> 100 µM (inactive)
same,GI50,[13],54.7 µM (inactive)
same,GI50,[14],60.3 µM (inactive)
same,GI50,[15],50.7 µM (inactive)
same,GI50,[16],53.8 µM (inactive)
same,GI50,[17],49.5 µM (inactive)
same,GI50,[18],25.5 µM (inactive)
same,GI50,[19],> 100 µM (inactive)
same,GI50,[20],45.4 µM (inactive)
same,GI50,[21],> 100 µM (inactive)
same,GI50,[22],> 100 µM (inactive)
same,GI50,[23],> 100 µM (inactive)
same,GI50,[24],> 100 µM (inactive)
same,GI50,[25],37.2 µM (inactive)
same,GI50,[26],> 100 µM (inactive)
same,GI50,[27],55.2 µM (inactive)
same,GI50,[28],> 100 µM (inactive)
same,GI50,[29],> 100 µM (inactive)
same,GI50,[30],92.9 µM (inactive)
same,GI50,[31],30.1 µM (inactive)
same,GI50,[32],> 100 µM (inactive)
same,GI50,[33],> 100 µM (inactive)
same,GI50,[57],36.8 µM (inactive)
same,GI50,[34],35.8 µM (inactive)
same,GI50,[58],36.6 µM
same,GI50,[35],28.3 µM (inactive)
same,GI50,[36],> 100 µM (inactive)
same,GI50,[37],44 µM (inactive)
same,GI50,[38],> 100 µM (inactive)
same,GI50,[39],> 100 µM (inactive)
same,GI50,[40],> 100 µM (inactive)
same,GI50,[41],> 100 µM (inactive)
same,GI50,[42],48.6 µM (inactive)
same,GI50,[43],26.4 µM (inactive)
same,GI50,[44],> 100 µM (inactive)
same,GI50,[45],> 100 µM (inactive)
same,GI50,[46],> 100 µM (inactive)
same,GI50,[47],> 100 µM (inactive)
same,GI50,[48],9.33 µM (inactive)
same,GI50,[49],28.2 µM (inactive)
same,GI50,[50],86.3 µM (inactive)
same,GI50,[51],45.4 µM (inactive)
same,GI50,[52],24.8 µM (inactive)
same,GI50,[53],64 µM (inactive)
same,GI50,[54],47.1 µM (inactive)

# From ChEMBL document CHEMBL1201862, “PubChem BioAssay data set” (2004)
